Experimental data reported in patent US20250163069A1, “HETEROCYCLIC DERIVATIVE, AND PHARMACEUTICAL COMPOSITION AND APPLICATION THEREOF” (priority 2022, published 2025).
Read-outs that look alike come from different tables or passages of the source.

Assays:
HCMV = test: In vitro anti-HCMV activity, GFP reporter virus in MRC5 cells; assay type: cell-based, Human Cytomegalovirus
Description: (§1) Experimental method for in vitro biological activity study: The HCMV virus used in this experiment contains a reporter gene GFP. The inhibitory activity of the compounds against HCMV was detected by detecting the expression of GFP, and the cytotoxicity was also determined; the compounds were tested at 8 concentrations, with 3-fold gradient dilution, and double wells. MRC5 cells were seeded in microtiter plates at a certain density and cultured overnight at 37° C. in 5% CO2. The compounds and viruses were added the next day. […] The final concentration of DMSO in the cell culture medium was 0.5%, the cells were cultured at 37° C. in 5% CO2 for 7 days, the fluorescence value of each well was detected using Acumen, and the original data were used to calculate the antiviral activity of the compounds. The cytotoxicity experiment was the same as the antiviral experiment, but without viral infection; CCK-8 reagent was used to detect cell viability, and the original data were used to calculate the cytotoxicity of the compounds. Software GraphPad Prism was used to analyze the dose-response curves of the compounds and calculate the EC50 and CC50 values (see Table 1 for the results).

in vitro = assay type: cell-based; settings: human
Description: as §1, with “compounds.” for “compounds. Software GraphPad Prism was used to analyze the dose-response curves of the compounds and calculate the EC50 and CC50 values (see Table 1 for the results).”

[1] = tested on: human hepatocyte suspension; test: Hepatocyte metabolic stability test; assay type: in vitro ADME; settings: for k: Human hepatocytes 1.0 × 10^6 cells/mL, tested compounds 1 μM, positive control 3 μM
Description: (§2) Test method: The compounds to be tested will be co-incubated with human hepatocyte suspension at a concentration of 1 μM. At different time points, ice acetonitrile containing internal standard was added to the system to terminate the reaction, after vortexing and centrifugation, the supernatant was taken, and the test compounds in the supernatant were analyzed by LC-MS/MS method. The in vitro intrinsic clearance rate was calculated according to the clearance rate constant of the tested compounds in the incubation system. 7-ethoxycoumarin and 7-hydroxycoumarin were used as positive controls, and the blank culture medium incubation group without hepatocytes was used as negative control.
(§3) Data analysis: The ratio of the peak areas of the analyte/internal standard (Aanalyte/AIS) was obtained by the instrument, and the remaining percentage (% Control) was calculated from the ratio of Aanalyste/AIS in the sample at non-zero time point to that at the zero time point. Ln (% Control) was plotted against incubation time and linearly fitted. The clearance constant (k, min^−1), clearance half-life (T1/2, min), and in vitro intrinsic clearance rate (CLint, hepatocyte, μL/min/10^6 cells) of the tested compounds were calculated using the following equation.
(§4) CLint,hepatic (mL/min/kg) refers to the inherent clearance rate of liver in vivo.

[2] = Hepatocyte metabolic stability test; assay type: in vitro ADME, Human; settings: for half-life at 1 μM / hepatocyte CLint at 1 μM: tested compounds 1 μM; for CLint scaled at 1 μM: Human, scaled with 120 × 10^6 cells/g liver and 21 g liver/kg, read-out: CLint, hepatic
Description: as §2, §3, §4

MRC5 cells = test: in vitro; assay type: cell-based; settings: human, 7 days
Description: as §1, with “compounds.” for “compounds. Software GraphPad Prism was used to analyze the dose-response curves of the compounds and calculate the EC50 and CC50 values (see Table 1 for the results).”

[3] = cited from earlier work
CMV virus = settings: after 28 days of treatment; cited from earlier work
[4] = Human betaherpesvirus 5, 168 h, HCMV with GFP reporter, MRC5 cells, 7 days, read-out: EC50
[5] = Human betaherpesvirus 5, MRC5, Table 1, read-out: activity in inhibiting HCMV
[6] = hepatocyte suspension, Human hepatocytes 1.0 × 10^6 cells/mL, positive control 3 μM
[7] = Human hepatocytes 1.0 × 10^6 cells/mL, positive control 3 μM

| Compound | CC50 at 7 days (in vitro) [nM] | EC50 (HCMV; [4]) [nM] | EC50 (HCMV; [5]) [nM] | further results |
| --- | --- | --- | --- | --- |
| COc1cccc(N2CCN(C3=Nc4c(F)cccc4[C@H](CC(=O)O)N3c3cc(C(F)(F)F)ccc3OC)CC2)c1 (racemic) [Letermovir (racemic), letermovir (racemic), reference compound] |  |  |  | EC50 (HCMV; HCMV with GFP reporter, MRC5 cells, 7 days, read-out: EC50): 3.92 nM |
| COc1cccc(N2CCN(C3=Nc4c(F)cccc4C(CC(=O)OCc4oc(=O)oc4C)N3c3cc(C(F)(F)F)ccc3OC)C[C@H]2C)c1 (single isomer, unassigned) [Compound I-41] | 39300 | 0.15 | < 1 |  |
| CCOc1ccc2ccc(=O)oc2c1 [7-ethoxycoumarin] |  |  |  | k [1]: 0.0348 min⁻¹; half-life at 1 μM [2, 6]: 0.332 h; hepatocyte CLint at 1 μM [2, 6]: 34.8 µL/min/1e6 cells; CLint scaled at 1 μM ([2]; hepatocyte suspension): 87.7 mL/min/kg |
| O=c1ccc2ccc(O)cc2o1 [7-hydroxycoumarin] |  |  |  | k [1]: 0.0401 min⁻¹; half-life [2, 7]: 0.288 h; hepatocyte CLint at 1 μM [2, 7]: 40.1 µL/min/1e6 cells; CLint scaled at 1 μM ([2]; hepatocytes): 101 mL/min/kg |
| COC(=O)OCOC(=O)C[C@H]1c2cccc(F)c2N=C(N2CCN(c3cccc(OC)c3)CC2)N1c1cc(C(F)(F)F)ccc1OC [Compound I-5] | > 50000 | 2.62 |  |  |
| COc1cccc(N2CCN(C3=Nc4c(F)cccc4[C@H](CC(=O)OCOC(C)=O)N3c3cc(C(F)(F)F)ccc3OC)CC2)c1 [Compound I-8] | > 50000 | 1.47 |  |  |
| COc1cccc(N2CCN(C3=Nc4c(F)cccc4[C@H](CC(=O)OCOC(=O)C(C)(C)C)N3c3cc(C(F)(F)F)ccc3OC)CC2)c1 [Compound I-13] | > 50000 | 2.76 |  |  |
| COc1cccc(N2CCN(C3=Nc4c(F)cccc4[C@H](CC(=O)OCc4oc(=O)oc4C)N3c3cc(C(F)(F)F)ccc3OC)CC2)c1 [Compound I-17] |  | 1.52 |  | CC50 (MRC5 cells): 43500 nM |
| COc1cccc(N2CC3CCC(C2)N3C2=Nc3c(F)cccc3C(CC(=O)O)N2c2cc(C(F)(F)F)ccc2OC)c1 (stereo not shown) [Compound I-19] | 23800 | 2.81 |  |  |
| COc1cccc(N2CCN(C3=Nc4c(F)cccc4C(CC(=O)O)N3c3cc(C(F)(F)F)ccc3OC)C[C@H]2C)c1 (stereo partly shown) [Compound I-23] | > 50000 | 0.28 | < 1 |  |
| COc1cc(N2CCN(C3=Nc4c(F)cccc4C(CC(=O)O)N3c3cc(C(F)(F)F)ccc3OC)C[C@H]2C)ccn1 (stereo partly shown) [Compound I-24] | > 50000 | 0.46 | < 1 |  |
| COc1cccc(N2CCN(C3=Nc4c(F)cccc4[C@H](CC(=O)O)N3c3cc(C(F)(F)F)ccc3OC)C[C@H]2C)c1 [Compound I-25] | > 50000 | 0.17 | < 1 | k [1]: 0.000154 min⁻¹; metabolic stability of human hepatocytes compared with letermovir ([1]; human hepatocytes): better metabolic stability; half-life at 1 μM [2, 6]: 74.9 h; hepatocyte CLint at 1 μM [2, 6]: 0.154 µL/min/1e6 cells; CLint scaled at 1 μM ([2]; hepatocyte suspension): 0.388 mL/min/kg |
| COc1cc(N2CCN(C3=Nc4c(F)cccc4[C@H](CC(=O)O)N3c3cc(C(F)(F)F)ccc3OC)C[C@H]2C)ccn1 [Compound I-26] | > 50000 | 0.26 | < 1 |  |
| COc1cccc(N2CCN(C3=Nc4c(F)cccc4[C@H](CC(=O)OCOC(C)=O)N3c3cc(C(F)(F)F)ccc3OC)C[C@H]2C)c1 [Compound I-33] | > 50000 | 0.06 | < 1 |  |
| COc1cc(N2CCN(C3=Nc4c(F)cccc4C(CC(=O)OCOC(C)=O)N3c3cc(C(F)(F)F)ccc3OC)CC2C)ccn1 (stereo not shown) [Compound I-49] | > 50000 | 0.46 | < 1 |  |
| COc1cc(N2CCN(C3=Nc4c(F)cccc4[C@H](CC(=O)OCOC(C)=O)N3c3cc(C(F)(F)F)ccc3OC)C[C@H]2C)ccn1 [Compound I-53] | > 50000 | 0.32 | < 1 |  |
| COc1cccc(N2CCN(C3=Nc4c(F)cccc4[C@H](CC(=O)O)N3c3cc(C(F)(F)F)ccc3OC)CC2)c1 [Letermovir, letermovir] |  |  |  | bioavailability ([3]; hematopoietic cell transplant (HCT) recipients, letermovir alone): about 37%; bioavailability ([3]; with cyclosporin): 85%; k [1]: 0.0022 min⁻¹; half-life at 1 μM [2, 6]: 5.27 h; hepatocyte CLint at 1 μM [2, 6]: 2.2 µL/min/1e6 cells; CLint scaled at 1 μM ([2]; hepatocyte suspension): 5.53 mL/min/kg; CMV virus detection in the patient (CMV virus): no CMV virus was detected |
